Experimental data published in PubChem BioAssay AID256 (DTP/NCI, 2004).
Toxic doses and inconclusive results are not listed. The calls were made as follows: active = survival T/C of 150% or more; inactive = T/C below 125% in these data.

Test system: CD2F1 mice, L1210 leukemia ip, survival T/C
Assay: NCI In Vivo Anticancer Drug Screen. Data for tumor model L1210 Leukemia (intraperitoneal) in CD2F1 (CDF1) mice
Settings: higher = longer survival
Method in brief: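 Vehicle-treated tumor-bearing mice served as controls (C) for compound-treated mice (T). Reported figure is T divided by C.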

[1] = endpoint: mean survival time, dose: 100.0 mg/kg/injection, schedule: Q01DX009 (ip), vehicle: saline with Tween-80
[2] = endpoint: mean survival time, dose: 200.0 mg/kg/injection, schedule: Q01DX009 (ip), vehicle: saline with Tween-80
[3] = endpoint: mean survival time, dose: 400.0 mg/kg/injection, schedule: Q01DX009 (ip), vehicle: saline with Tween-80
[4] = endpoint: mean survival time, dose: 25.0 mg/kg/injection, schedule: Q01DX009 (ip), vehicle: saline with Tween-80
[5] = endpoint: mean survival time, dose: 50.0 mg/kg/injection, schedule: Q01DX009 (ip), vehicle: saline with Tween-80
[6] = endpoint: mean survival time, dose: 100.0 mg/kg/injection, schedule: Q01DX001 (ip), vehicle: saline with Tween-80
[7] = endpoint: mean survival time, dose: 200.0 mg/kg/injection, schedule: Q01DX001 (ip), vehicle: saline with Tween-80
[8] = endpoint: mean survival time, dose: 400.0 mg/kg/injection, schedule: Q01DX001 (ip), vehicle: saline with Tween-80
[9] = endpoint: mean survival time, dose: 50.0 mg/kg/injection, schedule: Q04DX003 (ip), vehicle: saline with Tween-80
[10] = endpoint: mean survival time, dose: 100.0 mg/kg/injection, schedule: Q04DX003 (ip), vehicle: saline with Tween-80
[11] = endpoint: mean survival time, dose: 200.0 mg/kg/injection, schedule: Q04DX003 (ip), vehicle: saline with Tween-80
[12] = endpoint: mean survival time, dose: 400.0 mg/kg/injection, schedule: Q04DX003 (ip), vehicle: saline with Tween-80
[13] = endpoint: mean survival time, dose: 12.5 mg/kg/injection, schedule: Q04DX003 (ip), vehicle: saline
[14] = endpoint: mean survival time, dose: 25.0 mg/kg/injection, schedule: Q04DX003 (ip), vehicle: saline
[15] = endpoint: mean survival time, dose: 100.0 mg/kg/injection, schedule: Q01DX009 (ip), vehicle: saline
[16] = endpoint: mean survival time, dose: 200.0 mg/kg/injection, schedule: Q01DX009 (ip), vehicle: saline
[17] = endpoint: mean survival time, dose: 400.0 mg/kg/injection, schedule: Q01DX009 (ip), vehicle: saline

Measured: T/C

O=C(Nc1ccccc1)c1ccc(S(=O)(=O)F)cc1
inactive: [1] 101 % of control | [2] 106 % of control | [3] 106 % of control

CCCSCCSCCC
inactive: [4] 103 % of control | [5] 103 % of control | [1] 117 % of control

CC1(C)OC2CC3CC(OC3=O)C2O1 (configuration not stated)
inactive: [6] 107 % of control | [7] 97 % of control | [8] 107 % of control

O=C(c1ccccc1CO)N1CCOCC1
inactive: endpoint: mean survival time, dose: 12.5 mg/kg/injection, schedule: Q04DX002 (ip), vehicle: saline 98 % of control | endpoint: mean survival time, dose: 25.0 mg/kg/injection, schedule: Q04DX002 (ip), vehicle: saline 94 % of control | endpoint: mean survival time, dose: 50.0 mg/kg/injection, schedule: Q04DX002 (ip), vehicle: saline 94 % of control

c1ccc2c(c1)CCCN2
inactive: endpoint: mean survival time, dose: 31.5 mg/kg/injection, schedule: Q04DX003 (ip), vehicle: saline with Tween-80 98 % of control | [9] 102 % of control | endpoint: mean survival time, dose: 63.0 mg/kg/injection, schedule: Q04DX003 (ip), vehicle: saline with Tween-80 98 % of control | [10] 102 % of control | endpoint: mean survival time, dose: 125.0 mg/kg/injection, schedule: Q04DX003 (ip), vehicle: saline with Tween-80 106 % of control | [11] 93 % of control | [12] 86 % of control

CC(=O)Nc1ccc([N+](=O)[O-])cc1[N+](=O)[O-]
inactive: [10] 100 % of control | [11] 102 % of control

Nc1nc2ncc(CN(N=O)c3ccc(C(=O)NC(CCC(=O)O)C(=O)O)cc3)nc2c(=O)[nH]1 (configuration not stated)
inactive: endpoint: mean survival time, dose: 10.0 mg/kg/injection, schedule: Q01DX009 (ip), vehicle: water 102 % of control | endpoint: mean survival time, dose: 20.0 mg/kg/injection, schedule: Q01DX009 (ip), vehicle: water 101 % of control | endpoint: mean survival time, dose: 40.0 mg/kg/injection, schedule: Q01DX009 (ip), vehicle: water 98 % of control | endpoint: mean survival time, dose: 80.0 mg/kg/injection, schedule: Q01DX009 (ip), vehicle: distilled water + Tween-80 94 % of control | endpoint: mean survival time, dose: 160.0 mg/kg/injection, schedule: Q01DX009 (ip), vehicle: distilled water + Tween-80 90 % of control

N=[N+]=CC(=O)CC(N)C(=O)O (configuration not stated)
inactive: endpoint: median survival time, dose: 400.0 mg/kg/injection, schedule: Q01DX001 (ip), vehicle: saline 111 % of control | endpoint: median survival time, dose: 800.0 mg/kg/injection, schedule: Q01DX001 (ip), vehicle: saline 112 % of control | endpoint: median survival time, dose: 1600.0 mg/kg/injection, schedule: Q01DX001 (ip), vehicle: saline 25 % of control

Clc1ccc2ccc(Cl)cc2c1
inactive: [1] 94 % of control | [2] 96 % of control | [3] 105 % of control

Cc1nc(Cl)cc(Cl)c1C
inactive: endpoint: mean survival time, dose: 178.0 mg/kg/injection, schedule: Q04DX003 (ip), vehicle: other 100 % of control | endpoint: mean survival time, dose: 266.0 mg/kg/injection, schedule: Q04DX003 (ip), vehicle: other 100 % of control | endpoint: mean survival time, dose: 400.0 mg/kg/injection, schedule: Q04DX003 (ip), vehicle: other 95 % of control | endpoint: mean survival time, dose: 600.0 mg/kg/injection, schedule: Q04DX003 (ip), vehicle: other 105 % of control

CCOC(=O)CC(=O)NCCc1ccccc1OC
inactive: [6] 102 % of control | [7] 105 % of control | [8] 102 % of control

O=C(COc1cccc(Cl)c1)NCc1cccc(NC(=O)Nc2cccc(S(=O)(=O)F)c2)c1
inactive: [6] 91 % of control | [7] 98 % of control | [8] 101 % of control

CC(=O)OC(CC(=O)CC(O)(C(F)(F)F)C(F)(F)F)(C(F)(F)F)C(F)(F)F
inactive: endpoint: mean survival time, dose: 6.25 mg/kg/injection, schedule: Q04DX003 (ip), vehicle: saline 95 % of control | [13] 98 % of control | [14] 96 % of control

CC(C)Oc1ccc(N2C(=O)C(C)CNC2=S)cc1 (configuration not stated)
inactive: endpoint: mean survival time, dose: 75.0 mg/kg/injection, schedule: Q01DX001 (ip), vehicle: other 96 % of control | endpoint: mean survival time, dose: 150.0 mg/kg/injection, schedule: Q01DX001 (ip), vehicle: other 97 % of control | endpoint: mean survival time, dose: 300.0 mg/kg/injection, schedule: Q01DX001 (ip), vehicle: other 96 % of control

Clc1n[nH]c(Cl)n1
inactive: [4] 97 % of control | [5] 100 % of control | [1] 89 % of control | [10] 86 % of control

C=C[Si](C)(C=C)C=C
inactive: [15] 95 % of control | endpoint: mean survival time, dose: 100.0 mg/kg/injection, schedule: Q04DX002 (ip), vehicle: saline 91 % of control | [16] 97 % of control | endpoint: mean survival time, dose: 200.0 mg/kg/injection, schedule: Q04DX002 (ip), vehicle: saline 98 % of control | [17] 93 % of control | endpoint: mean survival time, dose: 400.0 mg/kg/injection, schedule: Q04DX002 (ip), vehicle: saline 98 % of control

CCOC(=O)NC(=S)n1ncnc1N
inactive: [13] 97 % of control | [14] 102 % of control

CC1CC(C)(C)OC(C(C)C)O1 (configuration not stated)
inactive: endpoint: mean survival time, dose: 100.0 mg/kg/injection, schedule: Q04DX002 (ip), vehicle: saline with Tween-80 96 % of control | endpoint: mean survival time, dose: 200.0 mg/kg/injection, schedule: Q04DX002 (ip), vehicle: saline with Tween-80 96 % of control | endpoint: mean survival time, dose: 400.0 mg/kg/injection, schedule: Q04DX002 (ip), vehicle: saline with Tween-80 96 % of control

O=C(O)CC(C(=O)O)C(=O)O
inactive: endpoint: mean survival time, dose: 100.0 mg/kg/injection, schedule: Q04DX003 (ip), vehicle: saline 100 % of control | endpoint: mean survival time, dose: 200.0 mg/kg/injection, schedule: Q04DX003 (ip), vehicle: saline 97 % of control | endpoint: mean survival time, dose: 400.0 mg/kg/injection, schedule: Q04DX003 (ip), vehicle: saline 94 % of control

CN=C(N)c1ccc(N=C(N)c2ccc(N=C(N)c3ccc(NC(=O)c4ccc(C(=O)Nc5ccc(C(N)=Nc6ccc(C(N)=Nc7ccc(C(N)=NC)cc7)cc6)cc5)cc4)cc3)cc2)cc1
inactive: endpoint: mean survival time, dose: 62.5 mg/kg/injection, schedule: Q01DX Z (ip), vehicle: water 111 % of control

c1ccc([Si](c2ccccc2)(c2cccs2)c2cccs2)cc1
inactive: [10] 102 % of control | [11] 106 % of control | [12] 114 % of control

CC1(C)N=C(N)N=C(N)N1c1cccc(/C=C/C=C/c2cccc([N+](=O)[O-])c2)c1
inactive: endpoint: mean survival time, dose: 25.0 mg/kg/injection, schedule: Q04DX003 (ip), vehicle: saline with Tween-80 95 % of control | [9] 91 % of control | [10] 89 % of control

OC(c1ccccc1)(c1ccccc1)c1cc2ccccc2[nH]1
inactive: [6] 89 % of control | [8] 89 % of control

O=CN(O)CC(=O)O.[Cu]
inactive: endpoint: mean survival time, dose: 3.12 mg/kg/injection, schedule: Q01DX009 (ip), vehicle: acetone 95 % of control | endpoint: mean survival time, dose: 6.25 mg/kg/injection, schedule: Q01DX009 (ip), vehicle: acetone 101 % of control | [13] 100 % of control

CCOC(=O)CC(=O)c1c(C)cc(C)cc1C
inactive: [1] 89 % of control | [2] 96 % of control | [3] 107 % of control

O=C(O)C1CCN1C1CCCCC1 (configuration not stated)
inactive: [15] 98 % of control | [10] 103 % of control | [16] 100 % of control | [11] 103 % of control | [17] 98 % of control | [12] 100 % of control

CCOC(=O)/N=[N+](\[O-])c1ccccc1
inactive: endpoint: median survival time, dose: 3.12 mg/kg/injection, schedule: Q01DX009 (ip), vehicle: saline with Tween-80 109 % of control | endpoint: median survival time, dose: 6.25 mg/kg/injection, schedule: Q01DX009 (ip), vehicle: saline with Tween-80 112 % of control | endpoint: median survival time, dose: 12.5 mg/kg/injection, schedule: Q01DX009 (ip), vehicle: saline with Tween-80 105 % of control

CSc1nc(N)n2nccc2n1
inactive: endpoint: median survival time, dose: 50.0 mg/kg/injection, schedule: Q01DX005 (ip), vehicle: saline 102 % of control | endpoint: median survival time, dose: 100.0 mg/kg/injection, schedule: Q01DX005 (ip), vehicle: saline 95 % of control | endpoint: median survival time, dose: 200.0 mg/kg/injection, schedule: Q01DX005 (ip), vehicle: saline 95 % of control

CC(C)C12CCC(=O)C=C1CCCC2O (configuration not stated)
inactive: endpoint: mean survival time, dose: 100.0 mg/kg/injection, schedule: Q04DX003 (ip), vehicle: saline sonified 100 % of control | endpoint: mean survival time, dose: 200.0 mg/kg/injection, schedule: Q04DX003 (ip), vehicle: saline sonified 100 % of control | endpoint: mean survival time, dose: 400.0 mg/kg/injection, schedule: Q04DX003 (ip), vehicle: saline sonified 97 % of control

CC1=NN(c2ccc(S(=O)(=O)O)cc2)C(=O)C1
inactive: [1] 93 % of control | [10] 96 % of control | [2] 87 % of control | [11] 104 % of control | [12] 98 % of control

CN(C=O)c1ccc(C(=O)NC(CCC(=O)OCc2ccccc2)C(=O)OCc2ccccc2)cc1 (configuration not stated)
inactive: [1] 94 % of control | [10] 105 % of control | [2] 89 % of control | [11] 92 % of control | [3] 89 % of control | [12] 89 % of control
